From US20240034731A1, “AZA-QUINAZOLINE COMPOUNDS AND METHODS OF USE” (Iambic Therapeutics, Inc., priority 2022, published 2024)

How the values were obtained:
[1] = biological target: CDK1/Cyclin B1 (Homo sapiens (Human), UniProt P06493); assay: CDK1/Cyclin B1 ADP-Glo Kinase Assay; type: biochemical; conditions: ADP-Glo, 80 uM ATP; read-out: CDK1 Cyclin B1 IC50
Method in brief: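 ADP-Glo luminescent readout of ADP production, with IC50 fitted by a four-parameter equation to fractional velocity against inhibitor concentration. Reaction started with ATP-containing substrate after a 30-minute enzyme–inhibitor pre-incubation and stopped after 90 minutes, both at room temperature.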

[2] = biological target: CDK2/Cyclin E1 (Homo sapiens (Human), UniProt P24941); assay: CDK2/Cyclin E1 Full length ADP-Glo Kinase Assay; type: biochemical; conditions: 20 uM ATP, read-out: CDK2/ CyclinE1 IC50
Method in brief: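 ADP-Glo luminescence (ATP depletion, then ADP-to-light conversion) quantified kinase turnover after a 90 min room-temperature reaction started by ATP/substrate, following 30 min enzyme–inhibitor preincubation. Enzyme: full-length CDK2/cyclin E1; IC50 fitted with a four-parameter equation on fractional velocity.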

[3] = biological target: CDK4/Cyclin D1 (Homo sapiens (Human), UniProt P11802); assay: CDK4/Cyclin D1 Mobility Shift Assay (MSA); type: biochemical; conditions: 0.2 mM ATP, read-out: CDK4/ CyclinD1 MSA IC50
CDK4/Cyclin D1, sequence (P11802 whole entry): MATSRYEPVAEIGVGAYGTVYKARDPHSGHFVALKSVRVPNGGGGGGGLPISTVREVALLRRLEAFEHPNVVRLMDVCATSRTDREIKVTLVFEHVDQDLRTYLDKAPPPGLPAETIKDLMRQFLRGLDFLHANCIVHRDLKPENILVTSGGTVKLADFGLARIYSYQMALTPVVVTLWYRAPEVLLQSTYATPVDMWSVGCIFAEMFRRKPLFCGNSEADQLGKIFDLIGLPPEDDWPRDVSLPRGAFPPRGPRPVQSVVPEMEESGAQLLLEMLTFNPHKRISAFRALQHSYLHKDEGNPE
CDK4/Cyclin D1, sequence (P24385 whole entry partner): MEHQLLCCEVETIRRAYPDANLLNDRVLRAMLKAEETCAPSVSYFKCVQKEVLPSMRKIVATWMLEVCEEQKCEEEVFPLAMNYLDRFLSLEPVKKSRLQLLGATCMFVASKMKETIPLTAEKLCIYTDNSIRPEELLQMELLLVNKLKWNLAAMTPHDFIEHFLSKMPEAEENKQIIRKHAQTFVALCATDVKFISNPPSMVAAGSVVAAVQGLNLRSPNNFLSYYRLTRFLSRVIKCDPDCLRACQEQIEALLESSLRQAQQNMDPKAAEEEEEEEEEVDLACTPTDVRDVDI
Description: CDK4/Cyclin D1 Mobility Shift Assay (MSA)
The purpose CDK4/Cyclin D1 assay is to evaluate the inhibition (% inhibition and IC50 values) in the presence of small molecule inhibitors by using a fluorescence based microfluidic mobility shift assay. CDK4/Cyclin D1 catalyzes the production of ADP from ATP that accompanies the phosphoryl transfer to the substrate peptide 5-FAM-Dyrktide (5-FAM-[…]) (Perkin Elmer Peptide 34). The mobility shift assay (MSA) electrophoretically separates the fluorescently labelled peptides (substrate and phosphorylated product) following the kinase reaction. Both substrate and product are measured, and the ratio of these values is used to generate % conversion of substrate to product by the LabChip EZ Reader. Typical reaction solutions contained 2% DMSO (+/− inhibitor), 10 mM MgCl2, 1 mM EGTA, 0.05% BSA, 2 mM DTT, 0.2 mM ATP, 0.01% Brig-35, 1.5 uM 5-FAM-Dyrktide, 2.5 nM CDK4/Cyclin D1 in 50 mM HEPES buffer at pH 7.5. The reaction was initiated with the addition of substrate solution, following a 30-minute pre-incubation of enzyme and inhibitor at 22° C. in the reaction mix. The reaction was stopped after 180 minutes by the addition of 75 uL of 500 mM EDTA and measured on a Perkin Elmer EZ reader instrument. IC50 determinations were made from a plot of the fractional velocity as a function of inhibitor concentration fit to the 4 parameters IC50 equation.

[4] = biological target: CDK6/Cyclin D3 (Homo sapiens (Human), UniProt Q00534); assay: CDK6/Cyclin D3 ADP-Glo Kinase Assay; type: biochemical; conditions: 100 uM ATP, read-out: CDK6/ CyclinD3 IC50
CDK6/Cyclin D3, sequence (Q00534 whole entry): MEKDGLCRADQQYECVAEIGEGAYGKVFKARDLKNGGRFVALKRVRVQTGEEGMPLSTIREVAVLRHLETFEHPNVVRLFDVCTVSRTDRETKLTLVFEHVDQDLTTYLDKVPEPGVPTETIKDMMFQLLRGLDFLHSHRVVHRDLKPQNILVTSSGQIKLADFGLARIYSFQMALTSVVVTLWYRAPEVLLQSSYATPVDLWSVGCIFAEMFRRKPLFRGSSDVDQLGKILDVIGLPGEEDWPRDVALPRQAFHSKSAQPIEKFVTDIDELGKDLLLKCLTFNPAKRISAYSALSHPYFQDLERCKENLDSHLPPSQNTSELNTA
CDK6/Cyclin D3, sequence (P30281 whole entry partner): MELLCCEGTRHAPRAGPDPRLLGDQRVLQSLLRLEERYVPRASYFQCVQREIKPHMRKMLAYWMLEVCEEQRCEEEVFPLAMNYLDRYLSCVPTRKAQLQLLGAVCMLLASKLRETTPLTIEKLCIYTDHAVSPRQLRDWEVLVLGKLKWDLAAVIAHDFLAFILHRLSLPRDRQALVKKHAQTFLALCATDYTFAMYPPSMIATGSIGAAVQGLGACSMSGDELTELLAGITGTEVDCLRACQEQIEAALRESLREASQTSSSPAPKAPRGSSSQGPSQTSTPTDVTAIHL
Method in brief: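 ADP-Glo luminescence measured ADP produced by CDK6/Cyclin D3 in a 90-min room-temperature reaction started with ATP-containing substrate, after 30-min enzyme–inhibitor pre-incubation. Fractional velocity was plotted against inhibitor concentration and fitted to a four-parameter IC50 model.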

[5] = test system: MCF-7 cells; assay: Cell Growth Inhibition, MCF-7 (CellTiterGlo, 6 days); type: cell-based; conditions: Homo sapiens, MCF7, 144 h, MCF-7, 6-day treatment
Method in brief: (§1)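 IC50 from four-parameter, variable-slope fits of % growth inhibition, derived from CellTiterGlo 2.0 luminescence relative to control. Compounds, usually 10-10,000 nM in half-log steps, stayed 6 days at 37 °C, 5% CO2 with 500 MCF-7 or OVCAR-3 cells/well in 10% FBS RPMI.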

[6] = test system: OVCAR-3 cells; assay: Cell Growth Inhibition, OVCAR-3 (CellTiterGlo, 6 days); type: cell-based; conditions: Homo sapiens, 144 h, OVCAR-3, 6-day treatment
Method in brief: as §1

CDK1/Cyclin B1, sequence (P06493 whole entry): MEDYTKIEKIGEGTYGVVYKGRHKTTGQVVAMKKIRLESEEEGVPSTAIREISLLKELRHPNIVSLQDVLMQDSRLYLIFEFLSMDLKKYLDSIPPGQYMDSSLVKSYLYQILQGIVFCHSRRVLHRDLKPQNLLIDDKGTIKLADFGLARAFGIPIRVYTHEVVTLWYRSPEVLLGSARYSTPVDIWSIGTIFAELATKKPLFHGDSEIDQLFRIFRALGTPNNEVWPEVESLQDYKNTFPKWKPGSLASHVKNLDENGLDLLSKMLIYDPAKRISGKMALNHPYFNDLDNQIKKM
CDK1/Cyclin B1, sequence (P14635 whole entry partner): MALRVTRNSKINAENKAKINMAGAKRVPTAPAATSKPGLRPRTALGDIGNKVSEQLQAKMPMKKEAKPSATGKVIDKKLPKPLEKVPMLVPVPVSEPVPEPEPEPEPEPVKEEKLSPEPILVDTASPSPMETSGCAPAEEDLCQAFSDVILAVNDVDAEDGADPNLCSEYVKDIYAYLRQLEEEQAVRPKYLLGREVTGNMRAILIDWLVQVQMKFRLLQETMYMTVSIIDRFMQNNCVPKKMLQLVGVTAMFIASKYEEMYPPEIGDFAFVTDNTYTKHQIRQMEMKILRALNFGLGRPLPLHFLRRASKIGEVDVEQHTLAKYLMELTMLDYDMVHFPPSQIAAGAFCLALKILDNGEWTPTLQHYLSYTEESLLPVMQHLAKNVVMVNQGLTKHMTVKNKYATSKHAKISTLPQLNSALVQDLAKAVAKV

Row | Structure (SMILES) | IC50 [1] [nM] | IC50 [2] [nM] | IC50 [3] [nM] | IC50 [4] [nM] | IC50 [5] [nM] | IC50 [6] [nM]
1 | CS(=O)(=O)N1CCC(Nc2ncc3ccnc(N4CCN(C5CC5)CC4)c3n2)CC1 [Compound 1, 8-(4-cyclopropylpiperazin-1-yl)-N-(1-(methylsulfonyl)piperidin-4-yl)pyrido[3,4-d]pyrimidin-2-amine] | 500 to 2000 | < 200 | < 200 | 200 to 500 | 500 to 2000 | > 2000
2 | CS(=O)(=O)N1CCC(Nc2ncc3ccnc(N4CCC5(C4)CC5(F)F)c3n2)CC1 (centres unmarked) [Compound 3, 8-(1,1-difluoro-5-azaspiro[2.4]heptan-5-yl)-N-(1-(methylsulfonyl)piperidin-4-yl)pyrido[3,4-d]pyrimidin-2-amine] | < 200 | < 200 | < 200 | < 200 | 500 to 2000 | < 200
3 | CN1CCN(c2ccc(Nc3ncc4ccnc(N5CCC6(C5)CC(F)(F)C6)c4n3)cc2)CC1 [Compound 4, 8-(2,2-difluoro-6-azaspiro[3.4]octan-6-yl)-N-(4-(4-methylpiperazin-1-yl)phenyl)pyrido[3,4-d]pyrimidin-2-amine] | 200 to 500 | < 200 | < 200 | < 200 | 200 to 500 | 500 to 2000
4 | CS(=O)(=O)N1CCC(Nc2ncc3ccnc(N4CCC(C#N)(C5CC5)C4)c3n2)CC1 (centres unmarked) [Compound 5, 3-cyclopropyl-1-(2-((1-(methylsulfonyl)piperidin-4-yl)amino)pyrido[3,4-d]pyrimidin-8-yl)pyrrolidine-3-carbonitrile] | < 200 | < 200 | < 200 | < 200 | 500 to 2000 | 500 to 2000
5 | CS(=O)(=O)N1CCC(Nc2ncc3ccnc(N4CCC5(CCOCC5)C4)c3n2)CC1 [Compound 7, N-(1-(methylsulfonyl)piperidin-4-yl)-8-(8-oxa-2-azaspiro[4.5]decan-2-yl)pyrido[3,4-d]pyrimidin-2-amine] | 200 to 500 | < 200 | < 200 | < 200 | 500 to 2000 | 500 to 2000
6 | CS(=O)(=O)N1CCC(Nc2ncc3ccnc(N4CC5(C4)CN(C4CC4)C5)c3n2)CC1 [Compound 8, 8-(6-cyclopropyl-2,6-diazaspiro[3.3]heptan-2-yl)-N-(1-(methylsulfonyl)piperidin-4-yl)pyrido[3,4-d]pyrimidin-2-amine] | 200 to 500 |  | < 200 |  | 500 to 2000 | < 200
7 | CN1CCN(c2ccc(Nc3ncc4ccnc(N5CCC6(CCN(S(C)(=O)=O)C6)C5)c4n3)cc2)CC1 (centres unmarked) [Compound 9, N-(4-(4-methylpiperazin-1-yl)phenyl)-8-(7-(methylsulfonyl)-2,7-diazaspiro[4.4]nonan-2-yl)pyrido[3,4-d]pyrimidin-2-amine] | 200 to 500 |  | < 200 |  | 500 to 2000 | 500 to 2000
8 | CN1CCn2nc(Nc3ncc4ccnc(N5CCC6(C5)CC6(F)F)c4n3)cc2C1 (centres unmarked) [Compound 10, 8-(1,1-difluoro-5-azaspiro[2.4]heptan-5-yl)-N-(5-methyl-4,5,6,7-tetrahydropyrazolo[1,5-a]pyrazin-2-yl)pyrido[3,4-d]pyrimidin-2-amine] | > 2000 | < 200 | < 200 | < 200 | 500 to 2000 | 500 to 2000
9 | CS(=O)(=O)N1CC(Nc2ncc3ccnc(N4CCC5(C4)CC5(F)F)c3n2)C1 (centres unmarked) [Compound 14, 8-(1,1-difluoro-5-azaspiro[2.4]heptan-5-yl)-N-(1-(methylsulfonyl)azetidin-3-yl)pyrido[3,4-d]pyrimidin-2-amine] | 200 to 500 | < 200 | < 200 | < 200 | > 2000 | > 2000
10 | CN1C[C@@H]2[C@H](C1)[C@H]2Nc1ncc2ccnc(N3CCC4(CCN(S(C)(=O)=O)C4)C3)c2n1 (stereo partly drawn) [Compound 15, N-((1R,5S,6s)-3-methyl-3-azabicyclo[3.1.0]hexan-6-yl)-8-(7-(methylsulfonyl)-2,7-diazaspiro[4.4]nonan-2-yl)pyrido[3,4-d]pyrimidin-2-amine] | > 2000 | 500 to 2000 | 500 to 2000 | > 2000 | > 2000 | > 2000
11 | CN1C[C@@H]2[C@H](C1)[C@H]2Nc1ncc2ccnc(N3CCC4(C3)CC4(F)F)c2n1 (stereo partly drawn) [Compound 17, 8-(1,1-difluoro-5-azaspiro[2.4]heptan-5-yl)-N-((1R,5S,6s)-3-methyl-3-azabicyclo[3.1.0]hexan-6-yl)pyrido[3,4-d]pyrimidin-2-amine] | > 2000 | 200 to 500 | < 200 | 200 to 500 | 500 to 2000 | 500 to 2000
12 | CCN1CC2(C1)CN(c1ccc(Nc3ncc4ccnc(N5CCC6(CCOCC6)C5)c4n3)nc1)C2 [Compound 18, N-(5-(6-ethyl-2,6-diazaspiro[3.3]heptan-2-yl)pyridin-2-yl)-8-(8-oxa-2-azaspiro[4.5]decan-2-yl)pyrido[3,4-d]pyrimidin-2-amine] | > 2000 | 500 to 2000 | < 200 | < 200 | 200 to 500 | > 2000
13 | CS(=O)(=O)N1CCC(Nc2ncc3ccnc(N4CC5(CCCC5)c5c(F)cccc54)c3n2)CC1 [Compound 19, 8-(4′-fluorospiro[cyclopentane-1,3′-indolin]-1′-yl)-N-(1-(methylsulfonyl)piperidin-4-yl)pyrido[3,4-d]pyrimidin-2-amine] | > 2000 | < 200 | 500 to 2000 | > 2000 | > 2000 | > 2000
14 | CN1CCC(n2cc(Nc3ncc4ccnc(N5CCC6(C5)CC6(F)F)c4n3)cn2)CC1 (centres unmarked) [Compound 20, 8-(1,1-difluoro-5-azaspiro[2.4]heptan-5-yl)-N-(1-(1-methylpiperidin-4-yl)-1H-pyrazol-4-yl)pyrido[3,4-d]pyrimidin-2-amine] | 500 to 2000 | < 200 | < 200 | < 200 | 500 to 2000 | 200 to 500
15 | CN1Cc2ccc(Nc3ncc4ccnc(N5CCC6(C5)CC6(F)F)c4n3)cc2C1 (centres unmarked) [Compound 22, 8-(1,1-difluoro-5-azaspiro[2.4]heptan-5-yl)-N-(2-methylisoindolin-5-yl)pyrido[3,4-d]pyrimidin-2-amine] | < 200 | < 200 | < 200 | < 200 | 200 to 500 | 200 to 500
16 | CS(=O)(=O)N1CCC(Nc2ncc3ccnc(N4CCC5(C4)CC(F)(F)C5)c3n2)CC1 [Example 2, 8-(2,2-difluoro-6-azaspiro[3.4]octan-6-yl)-N-(1-(methylsulfonyl)piperidin-4-yl)pyrido[3,4-d]pyrimidin-2-amine] | < 200 | < 200 | < 200 | < 200 | 500 to 2000 | 500 to 2000
17 | CCN1CC2(C1)CN(c1ccc(Nc3ncc4ccnc(N5CCC6(C5)CC(F)(F)C6)c4n3)nc1)C2 [Example 6, 8-(2,2-difluoro-6-azaspiro[3.4]octan-6-yl)-N-(5-(6-ethyl-2,6-diazaspiro[3.3]heptan-2-yl)pyridin-2-yl)pyrido[3,4-d]pyrimidin-2-amine] | > 2000 | 500 to 2000 | < 200 | < 200 | 500 to 2000 | > 2000
